Experimental data taken from US20230127258A1, “COMPOSITION COMPRISING THROMBIN DERIVED PEPTIDES AND USE THEREOF” (In2Cure AB, priority 2019, published 2023).

Assays:
[1] = system: S. aureus, P. aeruginosa and E. coli; experiment: MIC and MBC of TCP-25 with EDTA, text summary for all three bacterial strains (FIG. 20B-C); assay type: cell-based
Procedure: The minimal inhibitory concentration (MIC) was conducted according to standard protocol (Wiegand et al., 2008). A 1% bacterial solution was diluted 1:1000 times in 2×BBL™ Mueller Hinton (MH) II, cation adjusted broth (Becton, Dickinson and Company, Sparks, USA). […] Next, 50 μl of the bacterial solution was added. MH broth without bacteria was used as a sterile control, whereas supplemented only with bacteria as growth control. […] MIC was assessed as the lowest concentration of treatment that prevents visual bacterial growth in the wells. The MIC plates were then used to determine the minimal bactericidal concentration (MBC) for the various treatments. This was conducted by resuspending the solution in each well with a pipette and then plating 10 μl droplets on a THA plates which were then incubated in 37° C. overnight. MBC was established at concentration at which no bacterial colonies were observed.

[2] = system: LPS / TLR4- and TLR2-induced NF-kB activation; conditions: cited from earlier work
[3] = system: P. aeruginosa-induced sepsis and LPS-mediated shock; conditions: mouse models of endotoxic shock; cited from earlier work

Row | Molecule | antibacterial effect of EDTA alone [1] | anti-endotoxic functions [2] | mortality [3]
1 | O=C(O)CN(CCN(CC(=O)O)CC(=O)O)CC(=O)O [EDTA, ethylenediaminetetraacetic acid] | some bacteriostatic effect | – | –
2 | HVFRLKKWIQKVIDQFGE (TCP-25 fragment; PEPTIDE (1)..(18) TCP-25 fragment) [HVF18] | – | anti-endotoxic functions in vitro and in vivo | reduce mortality
